From patent US20220387602A1, “BIFUNCTIONAL DEGRADERS AND THEIR METHODS OF USE” (NOVARTIS AG, priority 2019, published 2022)

How the values were obtained:
CRBN = CRBN (Homo sapiens, UniProt Q96SW2); assay: CRBN displacement assay Format 1 (fluorescence polarization, BodipyFL-lenalidomide probe Compound HH); format: binding
Method in brief: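 Fluorescence polarization competition: CRBN (nominal 100 nM final) pre-incubated 45 min at room temperature with compound, then BodipyFL-lenalidomide probe added (5 nM final; 0.9% DMSO).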

YES1 = molecular target: T1, YES1 (Homo sapiens, UniProt P07947); assay: YES1-GFP protein abundance flow cytometry assay in HEK293A; format: cell-based; settings: for YES1 Amax: % protein remaining at the concentration of maximum degradation; for DC50: HEK293A YES1-GFP sensor cells, 24 h
T1 construct: EGFP (after a Leu that replaces the STOP codon); expressed in transfected cells; host or cells: HEK293A (Invitrogen R70507), lentiviral transduction
Procedure: Degradation of BTK, CSK, ABL2, EPHA4 and YES1 was measured in HEK293A cells (Invitrogen R70507) expressing either BTK-GFP and RFP, CSK-GFP and mCherry, GFP-ABL2 and mCherry, EPHA4-GFP and mCherry, or YES1-GFP and mCherry from a stably integrated bicistronic BTK-GFP-iresRFP, CSK-GFP-CHYSEL-mCherry, GFP-ABL2-CHYSEL-mCherry, EPHA4-GFP-CHYSEL-mCherry, or YES1-GFP-CHYSEL-mCherry construct, respectively. Reduction of the GFP signal measured by flow cytometry served as readout for BTK, CSK, ABL2, EPHA4 and YES1 degradation after degrader treatment.
293A BTK-GFP-Ires-RFP, CSK-GFP-CHYSEL-mCherry, GFP-ABL2-CHYSEL-mCherry, EPHA4-GFP-CHYSEL-mCherry, or YES1-GFP-CHYSEL-mCherry sensor cells were generated by lentiviral vector transduction using the pLenti6-BTK-GFP-Ires-RFP, pLenti6-mCherryCHYSEL-EGFP-ABL2, pLenti6-CSK-GFP-CHYSEL-mCherry, pLenti6-EPHA4-GFP-CHYSEL-mCherry or pLenti6-YES1-GFP-CHYSEL-mCherry sensor construct described before. Lentiviral particles were produced in HEK293FT cells (Invitrogen R70007) by co-transfection of 500 ng pLenti6-BTK-GFP-Ires-RFP or pLenti6-IKZF3-GFP-Ires-RFP, 500 ng delta8.71 and 200 ng pVSVG diluted in 100 μL OptiMEM serum free medium (Invitrogen #11058-021) that was mixed after 5 min preincubation with 3 μL of Lipofectamine2000 (Invitrogen #11668-019) in 97 μL OptiMEM serum free medium. The mix was incubated for another 20 min at RT and then added on 1 mL of a freshly prepared suspension of HEK293FT cells in a well of a 6-well plate (concentration 1.2×10^6 cells/mL). 1 day after transfection, the medium was replaced with 1.5 mL of complete growth medium (DMEM high Glucose+10% FCS+1% L-Glutamine+1% NEAA+1% NaPyr.). 48 h post transfection supernatant containing viral transducing particles was collected and frozen at −80° C.
2 days before transduction with viral particles 1×10^5 HEK293A cells (Invitrogen R70507) were seeded in 2 mL growth medium in a well of a 6-well plate. Infection was performed with 90 μL of collected supernatant containing viral transducing particles in 1 mL medium including 8 µg/mL polybrene. 24 h post infection, stably transfected cells were selected with blasticidin at a concentration of 8 μg/mL referred to as stable HEK293A sensor cells.
Stable HEK293A sensor cells were maintained in complete growth medium (DMEM high Glucose+10% FCS+1% L-Glutamine+1% NEAA+1% NaPyr.) with passaging performed twice per week. […] GFP and RFP are read in the channels called FITC and PE, respectively.
Concentration response curves plotting relative reduction of the GFP signal (measured by flow cytometry) versus 10 compound concentrations (starting concentration 10 μM, 3 fold dilution steps) of the compounds allowed generation of DC50 values.

T1 sequence (P07947 whole entry, looked up): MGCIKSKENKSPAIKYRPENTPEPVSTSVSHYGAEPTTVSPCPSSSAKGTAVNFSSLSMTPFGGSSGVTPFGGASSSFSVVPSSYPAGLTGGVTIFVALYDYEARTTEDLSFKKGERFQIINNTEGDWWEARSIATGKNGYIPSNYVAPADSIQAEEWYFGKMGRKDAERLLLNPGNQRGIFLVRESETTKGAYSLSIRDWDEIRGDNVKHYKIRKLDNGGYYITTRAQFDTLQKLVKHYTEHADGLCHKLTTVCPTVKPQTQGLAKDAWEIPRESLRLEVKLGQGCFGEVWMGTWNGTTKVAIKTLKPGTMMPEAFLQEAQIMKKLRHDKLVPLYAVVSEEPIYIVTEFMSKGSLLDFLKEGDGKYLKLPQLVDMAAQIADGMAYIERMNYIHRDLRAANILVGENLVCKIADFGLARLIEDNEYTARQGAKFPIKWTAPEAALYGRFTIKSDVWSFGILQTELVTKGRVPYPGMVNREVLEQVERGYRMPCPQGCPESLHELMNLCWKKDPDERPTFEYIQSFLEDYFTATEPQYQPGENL
Sequence of CRBN (Q96SW2 whole entry): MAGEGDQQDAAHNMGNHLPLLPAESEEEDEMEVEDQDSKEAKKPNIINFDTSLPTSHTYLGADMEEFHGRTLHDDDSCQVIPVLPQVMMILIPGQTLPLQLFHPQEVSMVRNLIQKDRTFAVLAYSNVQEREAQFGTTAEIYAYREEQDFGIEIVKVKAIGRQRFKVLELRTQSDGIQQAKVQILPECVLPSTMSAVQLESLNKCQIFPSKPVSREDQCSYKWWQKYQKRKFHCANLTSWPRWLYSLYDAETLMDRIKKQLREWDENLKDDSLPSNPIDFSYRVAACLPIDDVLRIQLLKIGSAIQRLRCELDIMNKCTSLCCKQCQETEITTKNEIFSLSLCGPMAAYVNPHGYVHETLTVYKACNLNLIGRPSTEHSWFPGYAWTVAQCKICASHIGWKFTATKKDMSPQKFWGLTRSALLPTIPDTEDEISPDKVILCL

Compound	AC50 (CRBN)	YES1 Amax (YES1)	DC50 (YES1)
COc1ccc(C(=O)N2CCC3(CCN(C(=O)CN4CCN(c5cc(Nc6ncc(C(=O)Nc7c(C)cccc7Cl)s6)nc(C)n5)CC4)CC3)CC2)cc1N1CCC(=O)NC1=O [compound 07, N-(2-chloro-6-methylphenyl)-2-((6-(4-(2-(9-(3-(2,4-dioxotetrahydropyrimidin-1(2H)-yl)-4-methoxybenzoyl)-3,9-diazaspiro[5.5]undecan-3-yl)-2-oxoethyl)piperazin-1-yl)-2-methylpyrimidin-4-yl)amino)thiazole-5-carboxamide]	496 nM	11%	124 nM
COc1ccc(C(=O)N2CCC3(CCN(C(=O)CCCCCCCN4CCN(c5cc(Nc6ncc(C(=O)Nc7c(C)cccc7Cl)s6)nc(C)n5)CC4)CC3)CC2)cc1N1CCC(=O)NC1=O [compound 06, N-(2-chloro-6-methylphenyl)-2-((6-(4-(8-(9-(3-(2,4-dioxotetrahydropyrimidin-1(2H)-yl)-4-methoxybenzoyl)-3,9-diazaspiro[5.5]undecan-3-yl)-8-oxooctyl)piperazin-1-yl)-2-methylpyrimidin-4-yl)amino)thiazole-5-carboxamide]	162 nM	4%	9 nM
